Source: patent US11753408B2, “Compounds and method for blocking transmission of malarial parasite” (The United States of America, as represented by the …, priority 2016, dated 2023)

Columns and labels:
[1] = Solubility at pH 7.4; assay type: physicochemical
[2] = Microsomal stability (rat); assay type: in vitro ADME; settings: rat microsomes
[3] = test system: Asexual parasites of P. falciparum strain 3D7; assay: In vitro drug activity on asexual parasites (SYBR Green assay); assay type: cell-based, Plasmodium falciparum
Outline: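 SYBR Green I fluorescence (ex 490, em 520 nm) was read after freeze-thaw lysis and 30 min staining at room temperature. Before that, drug-treated cultures (0.5% parasitemia, 2% hematocrit, DMSO ≤0.5%) were incubated 72 h, in duplicate.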

[4] = biological target: mTOR (Homo sapiens, UniProt P42345); assay: mTOR activity (no method described); assay type: biochemical
[5] = test system: Stage III-V gametocytes (blood stage P. falciparum parasites); assay: In vitro drug activity on gametocytes (AlamarBlue viability assay); assay type: cell-based, Plasmodium falciparum; settings: read-out: Gametocyte EC50
Outline: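 Viability was measured by AlamarBlue fluorescence (Ex 525/Em 598 nm) after 24 h dye incubation following 72 h compound exposure at 37° C, 5% CO2. Gametocytes, stage III–V from strains 3D7, HB3 and Dd2, were NAG/Percoll-enriched and plated at 20,000 cells/well.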

[6] = PAMPA permeability; assay type: in vitro ADME

Row | Compound | Sol @ pH 7.4 [1] | Microsomal Stability (rat) T1/2 [2] | EC50 [3] | mTOR [4] | EC50 [5] | PAMPA Permeability [6]
1 | Cc1cc(-c2ccc3ncc4ccc(=O)n(-c5ccc(C(=O)N6CCOCC6)cc5)c4c3c2)ccc1Cl [Compound 144] | <1.0 ug/mL | 4.1 min | 368 nM | 2083 nM | 1760 nM | 1470 ×10⁻⁶ cm/s
2 | O=C(c1ccc(-n2c(=O)ccc3cnc4ccc(-c5ccc(Cl)cc5)cc4c32)cc1)N1C2CCC1CC(O)C2 (stereo not shown) [Compound 139] | <1.0 ug/mL | 4.3 min | 20.6 nM | 405.1 nM | 153 nM | 238 ×10⁻⁶ cm/s
3 | O=C(c1ccc(-n2c(=O)ccc3cnc4ccc(-c5ccc(Cl)cc5)cc4c32)cc1)N1CCN(CCO)CC1 [Compound 109] | 4.2 ug/mL | 12.3 min | 60.7 nM | 3260 nM | 18 nM | 227 ×10⁻⁶ cm/s
4 | CN(C(=O)c1ccc(-n2c(=O)ccc3cnc4ccc(-c5ccc(Cl)cc5)cc4c32)cc1)C1CC1 [Compound 143] | <1.0 ug/mL | 1.6 min | 63.1 nM | 671.6 nM | 242 nM | 1420 ×10⁻⁶ cm/s
5 | CNC(=O)c1ccc(-n2c(=O)ccc3cnc4ccc(-c5ccc(N)nc5)cc4c32)cc1 [Compound 335] | 2.8 ug/mL | >30.0 min | 14.4 nM | 28.21 nM | 17.7 nM | < 2.2 ×10⁻⁶ cm/s
6 | CN(C)Cc1ccc(-c2ccc3ncc4c(c3c2)n(-c2cccc(C#N)c2)c(=O)n4C)cc1 [Compound 436] | 52.9 ug/mL | >30.0 min | 892 nM | 12450 nM | 1970 nM | 767 ×10⁻⁶ cm/s
7 | O=C(NC1CCC1)c1ccc(-n2c(=O)ccc3cnc4ccc(-c5ccc(Cl)cc5)cc4c32)cc1 [Compound 154] | <1.0 ug/mL | 8 min | 160 nM | 765.7 nM | 102 nM | < 1 ×10⁻⁶ cm/s
8 | CN1CC2CC1CN2C(=O)c1ccc(-n2c(=O)ccc3cnc4ccc(-c5ccc(Cl)cc5)cc4c32)cc1 (stereo not shown) [Compound 140] | >77.0 ug/mL | 9.6 min | 59.2 nM | 6373 nM | 272 nM | 1390 ×10⁻⁶ cm/s
9 | CC(C)(N)c1cccc(-c2ccc3ncc4ccc(=O)n(-c5ccc(C(=O)N6CCOCC6)cc5)c4c3c2)c1 [Compound 197] | >77 ug/mL | >30 min |  | 2384 nM | 65100 nM | 3.5 ×10⁻⁶ cm/s
10 | COc1cc(C(=O)NC2CC2)ccc1-n1c(=O)ccc2cnc3ccc(-c4ccc(Cl)cc4)cc3c21 [Compound 191] | 2.4 ug/mL | 26.7 min |  | 4337 nM | 172 nM | 606 ×10⁻⁶ cm/s
11 | O=C(c1ccc(-n2c(=O)ccc3cnc4ccc(-c5ccc(CN6CCC6)cc5)cc4c32)cc1)N1CCOCC1 [Compound 189] | >78 ug/mL | >30 min |  | 6514 nM | 358 nM | 212 ×10⁻⁶ cm/s
12 | COc1cc(C(=O)N2CCOCC2)ccc1-n1c(=O)ccc2cnc3ccc(-c4ccc(F)cc4)cc3c21 [Compound 194] | <1 ug/mL | 6.9 min |  | 100000 nM | 702 nM | 1080 ×10⁻⁶ cm/s
13 | CCc1ccc(-c2ccc3ncc4ccc(=O)n(-c5ccc(C(=O)N6CCOCC6)cc5)c4c3c2)cc1 [Compound 195] | <1 ug/mL | 8.8 min |  | 781.4 nM | 276 nM | 148 ×10⁻⁶ cm/s
